From patent publication US4637901A, “N-(alpha-haloacyl)-N-hydrocarbyl carbamoyl halides” (priority 1985, dated 1987)
Values after ≈ are worked out from the molar mass of the structure shown.

Key:
Assay type in all cases: in vivo
[1] = tested on: certain mites and insects including the Bean Aphid, Southern Army Worm, Mexican Bean Beetle and house fly; test: Pesticidal activity against certain mites and insects (overall comparison); details: for activity in words (comparison as set forth in Table I): prior art derivatives compared with derivatives of the invention
Method: A comparision of an oxime derivative of the novel compounds of this invention was evaluated to determine its pesticidal activity against certain mites and insects including the Bean Aphid, Southern Army Worm, Mexican Bean Beetle and house fly. The oxime derivative was also compared with typical derivative of this oxime as disclosed in British Pat. No. 1,226,450.
(§1) Suspensions of the test compounds were prepared by dissolving one gram of compound in 50 milliliters of acetone in which had been dissolved 0.1 gram (10 percent of the weight of compound) of an alkylphenoxy polyethoxyethanol surfactant, as an emulsifying or dispersing agent. The resulting solution was mixed into 150 milliliters of water to give roughly 200 milliliters of a suspension containing the compound in finely divided form. The thus-prepared stock suspension contained 0.5 percent by weight of compound.
(§2) Certain of the test compounds were also prepared by dissolving 375 mg of compound in 7.5 ml of dimethylformamide. Fifteen ml of acetone containing 37.5 mg (10 percent of the weight of test compound) of an alkylphenoxy polyethoxyethanol surfactant, as a wetting/emulsifying/dispersing agent was added to the dimethylformamide solution. Fifty-two and a half ml of water was mixed into the dimethylformamide-acetone mixture to give roughly 75 ml of a suspension containing the compound in solution or in finely divided form. The thus prepared stock suspension contained 0.5 percent by weight of compound. The test concentrations in parts per million by weight employed in the tests described hereinbelow were obtained by appropriate dilutions of the stock suspension with water.

[2] = tested on: Mexican Bean Beetle (Epilachna varivestis, Muls.) larvae; test: Mexican Bean Beetle Leaf Spray Test; details: 120 h, five days, read-out: Biological activity (LD50 in ppm), Mexican Bean Beetle
Method: as §1
as §2, with “water. The test procedures were as follows:” for “water.”
Mexican Bean Beetle Leaf Spray Test
Fourth instar larvae of the Mexican bean beetle (Epilachna varivestis, Muls.), reared on Tendergreen bean plants at a temperature of 80°±5° F. and 50±5 percent relative humidity, were the test insects.
For certain of the tests second instar larvae (weighing about 6 mg) of the Mexican bean beetle (Epilachna varvestis, Muls), reared on Seiva Pole lima bean plants at a temperature of 80°±5° F. and […] relative humidity, were the test insects.
The test compounds were formulated by diluting the stock suspension with water to give a suspension containing 500 parts of test compound per million parts of final formulation. […]

[3] = tested on: House Fly (Musca domestica, L.); test: Fly Bait Test; details: 24 h, adult flies, sugar bait, twenty-four hours, read-out: Biological activity (LD50 in ppm), House Fly
Method: as §1
as §2, with “water. The test procedures were as follows:” for “water.”
Four to six day old adult house flies (Musca domestica, L.), reared according to the specifications of the Chemical Specialties Manufacturing Association (Blue Book, McNair-Dorland Co., N.Y. 1954; pages 243-244, 261) under controlled conditions of 80°±5° F. and 50±5 percent relative humidity, were the test insects. The flies were immobilized by anesthetizing with carbon dioxide and twenty-five immobilized individuals, males and females, were transferred to a cage consisting of a standard food strainer about five inches in diameter which was inverted over a wrapping-paper-covered surface. […]

[4] = tested on: Southern Armyworm (Spodoptera eridania, (Cram.)) larvae; test: Southern Armyworm Leaf Spray Bait Test; details: 120 h, five days, read-out: Biological activity (LD50 in ppm), Southern Army Worm
Method: as §1
as §2, with “water. The test procedures were as follows:” for “water.”
Southern Armyworm Leaf Spray Bait Test
Larvae of the southern armyworm (Spodoptera eridania, (Cram.)), reared on Tendergreen bean plants at a temperature of 80°±5° F. and a relative humidity of 50±5 percent, constituted the test insects.
The test compounds were formulated by diluting the stock suspension with water to give a suspension containing 500 parts of test compound per million parts of final formulation. Potted Tendergreen bean plants of standard height and age were placed on a revolving turntable and sprayed with 100-110 milliliters of test compound formulation by use of a DeVilbiss spray gun set at 40 psig air pressure. This application, which lasted 25 seconds, was sufficient to wet plants to run-off. […] Percent mortality was recorded for various concentration levels.

[5] = tested on: Bean Aphid (Aphis fabae Scop.); test: Bean Aphid Foliage Spray Test; details: foliar, potted dwarf nasturtium plants, 24 hour holding period, read-out: Biological activity (LD50 in ppm), Bean Aphid
Method: as §1
as §2, with “water. The test procedures were as follows:” for “water.”
Bean Aphid Foliage Spray Test
Adults and nymphal stages of the bean aphid (Aphis fabae Scop.) reared on potted dwarf nasturtrium plants at 68°-70° F. and 50±5 percent relative humidity, constituted the test insects. For testing purposes, the number of aphids per pot was standardized to 100-150 by trimming plants containing excess aphids. […]
The potted plants (one pot per compound tested) infested with 100-150 aphids were placed on a revolving turntable and sprayed with 100-110 milliliters of test compound formulation by use of a DeVilbiss spray gun set at 40 psig air pressure. […] Percent mortality was recorded for various concentration levels.

In the case of `COC(=O)Nc1ccc(OC(=O)N(C)C(=O)C[N+](C)(C)C)cc1C(C)C`, the “pesticidal properties (in words)” value ([1]; trimethyl amine salt of the N-haloacylcarbamate) was “excellent pesticidal properties”.

Molecule `CSC(C)=NOC(=O)N(C)C(=O)CCl` [(XII)] has an LC50 [2] of 35 µg/mL (≈ 147 µM), an LC50 [3] of 6 µg/mL (≈ 25.1 µM) and an LC50 [4] of 20 µg/mL (≈ 83.8 µM). The LC50 [5] was 16 µg/mL (≈ 67 µM).

For `CSC(C)=NOC(=O)N(C)C(=O)CCCCl` [(XIVa)], the “activity in words (comparison as set forth in Table I)” value [1] was “less active or inactive”, the LC50 [2] was 310 µg/mL (≈ 1160 µM) and the LC50 [3] was 25 µg/mL (≈ 93.7 µM). It also gave an LC50 [4] of 310 µg/mL (≈ 1160 µM) and an LC50 [5] of 37 µg/mL (≈ 139 µM).

`CCC(=O)N(C)C(=O)ON=C(C)SC` [(XIVb)] was tested, and the “activity in words (comparison as set forth in Table I)” value [1] was “less active or inactive”, the LC50 [2] was 200 µg/mL (≈ 916 µM) and the LC50 [3] was 500 µg/mL (≈ 2290 µM). The LC50 [4] was 60 µg/mL (≈ 275 µM) and the LC50 [5] was 500 µg/mL (≈ 2290 µM).
